One may read the IC50 as the point on the concentration scale where inhibition reaches its midpoint. Broadly, the remaining activity is the signal under treatment as a percentage of the control signal.

The structures appear in SMILES notation. Like-named read-outs stand apart in the source and are kept apart here. A value given as a limit tells only on which side of the number the result lay.

The source of these data is US10757937B2, “Sulfonamides that activate ABA receptors” (The Regents of the University of California, priority 2014, dated 2020).

The target of experiment [1] is T1, PYR1 (Arabidopsis thaliana, UniProt O49686).
T1 construct: 6X-His; made in house; host or cells: E. coli BL21[DE3]pLysS
T1 sequence (O49686 1-191): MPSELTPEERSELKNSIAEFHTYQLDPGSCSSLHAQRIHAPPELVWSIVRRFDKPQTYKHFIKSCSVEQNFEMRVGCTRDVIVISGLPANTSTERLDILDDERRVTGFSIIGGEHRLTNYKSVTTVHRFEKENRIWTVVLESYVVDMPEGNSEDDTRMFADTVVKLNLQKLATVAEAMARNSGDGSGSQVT
T1 sequence (Q9CAJ0 23-511 partner): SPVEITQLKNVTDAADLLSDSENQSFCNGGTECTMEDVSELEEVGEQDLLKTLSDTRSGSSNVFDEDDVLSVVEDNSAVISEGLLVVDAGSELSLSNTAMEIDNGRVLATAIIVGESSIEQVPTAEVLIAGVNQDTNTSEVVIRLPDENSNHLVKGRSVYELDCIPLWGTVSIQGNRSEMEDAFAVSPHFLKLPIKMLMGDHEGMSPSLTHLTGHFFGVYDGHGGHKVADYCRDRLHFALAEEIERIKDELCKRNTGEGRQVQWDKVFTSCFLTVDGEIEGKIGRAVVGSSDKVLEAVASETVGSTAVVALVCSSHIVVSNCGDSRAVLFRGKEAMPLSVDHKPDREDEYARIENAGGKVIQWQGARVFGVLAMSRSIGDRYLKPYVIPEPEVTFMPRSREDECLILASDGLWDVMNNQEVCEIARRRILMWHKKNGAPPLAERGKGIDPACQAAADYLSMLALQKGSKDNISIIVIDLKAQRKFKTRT
Description: receptor-mediated PP2C (HAB1) inhibition in vitro assay. The format is biochemical. As to conditions: for remaining activity at 50 µM: 50 uM of the test compound. Summed up:
(§1)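 His-tagged receptors (MBP fusion for PYL11) at 2:1 ratio to 50 nM GST-HAB1 in 100 mM Tris-OAc pH 7.9, 100 mM NaCl, 1 mM MnCl2; 4-methylumbelliferyl-phosphate fluorogenic substrate. Compounds at 50 uM (ABA 10 uM); IC50 from dose curves for selected compounds.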

Experiment [2] has as its target T2, PYL3 (Arabidopsis thaliana, UniProt Q9SSM7).
T2 construct: 6X-His; made in house; host or cells: E. coli BL21[DE3]pLysS
T2 sequence (Q9SSM7 1-209): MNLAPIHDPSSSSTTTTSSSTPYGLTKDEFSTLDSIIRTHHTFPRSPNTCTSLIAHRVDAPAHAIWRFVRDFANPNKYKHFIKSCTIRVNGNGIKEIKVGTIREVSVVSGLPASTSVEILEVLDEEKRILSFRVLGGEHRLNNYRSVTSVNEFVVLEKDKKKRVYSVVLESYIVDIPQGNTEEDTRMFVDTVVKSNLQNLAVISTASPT
T2 sequence (Q9CAJ0 23-511 partner): T1 sequence (Q9CAJ0 23-511 partner)
The description is as above. Conditions: for remaining activity at 50 µM: 50 uM of the test compound. The format is biochemical. In outline: as §1

The mark [3] stands for this setting: Table VII, read-out: PP2C Dose Curves PYL3 (IC50).
Setting [4] is: Table VII, read-out: PP2C Dose Curves PYR1 (IC50).
[5] abbreviates: Table XII-B, calculated from dose curves, read-out: PP2C Activity (IC50 in uM) PYR1.
[6] abbreviates: Table XII-B, calculated from dose curves, read-out: PP2C Activity (IC50 in uM) PYL3.

For the compound `CC1=CC(=O)CC(C)(C)[C@@]1(O)/C=C/C(C)=C\C(=O)O` [ABA, Abscisic acid, reference compound], in experiment [1] (ABA (10 μM)), the “PP2C Activity PYR1” value is recorded as 6.0. Moreover, the “PP2C Activity PYL3” value in experiment [2] (ABA (10 μM)) came to 5.4.

With `CC(C)(C(=O)NS(=O)(=O)Cc1ccc(C#N)cc1)c1cccc(C#N)c1` [Compound 18], the IC50 in experiment [2] (setting [3]) was more than 50 µM.

On to `CCC(CC)(C(=O)NS(=O)(=O)Cc1ccc([N+](=O)[O-])cc1)c1ccccc1` [Compound 19], for which the half-inhibitory concentration (IC50) in experiment [1] (setting [4]) and in experiment [2] (setting [3]) was more than 50 µM each time.

As to `N#Cc1ccc(CS(=O)(=O)NC(=O)C2(c3ccc(F)cc3)CCCC2)cc1` [Compound 24], the IC50 in experiment [1] (setting [4]) is more than 50 µM.

Consider `N#Cc1ccc(CS(=O)(=O)NC(=O)C2(c3ccc(Br)cc3)CC2)cc1` [Compound 30], for which the half-maximal inhibitory concentration (IC50) in experiment [2] (setting [3]) is more than 50 µM.

Consider `N#Cc1ccc(CS(=O)(=O)NC(=O)C2(c3cccc(C#N)c3)CC2)cc1` [Compound 50], for which, in experiment [2] (setting [3]), the concentration for half-maximal inhibition (IC50) was determined as 20.8 µM.

As for `O=C(NS(=O)(=O)Cc1ccc([N+](=O)[O-])cc1)C1(c2ccccc2)CCCCC1` [Compound 63], the remaining activity at 50 µM amounted to 101% in experiment [1] and 127% in experiment [2]. In addition, the IC50 in experiment [1] (setting [5]) and in experiment [2] (setting [6]) was more than 50 µM each time.

As to `O=C(NS(=O)(=O)Cc1ccc(F)cc1)C1(c2ccccc2)CCCCC1` [Compound 64], the values for the remaining activity at 50 µM in experiment [1] and in experiment [2] were 98.4% and 97.4%, respectively. Further, the 50% inhibitory concentration (IC50) in experiment [1] (setting [5]) and in experiment [2] (setting [6]) was more than 50 µM throughout.

Regarding `CC(C)COC(=O)NS(=O)(=O)Cc1ccc(C#N)cc1` [Compound 65, 2-Methylpropyl N-[(4-cyanophenyl)methanesulfonyl]carbamate], the remaining activity at 50 µM was 96.2% in experiment [1] and 92.9% in experiment [2]. Further, the IC50 in experiment [1] (setting [5]) and in experiment [2] (setting [6]) was more than 50 µM in each case.

Take `CC1CCC(C(=O)NS(=O)(=O)Cc2ccc(C#N)cc2)(c2ccc(F)cc2)CC1` (centres unmarked) [Compound 67, N-[(4-Cyanophenyl)methanesulfonyl]-1-(4-fluorophenyl)-4-methylcyclohexane-1-carboxamide]: the results for the remaining activity at 50 µM in experiment [1] and in experiment [2] were 99.6% and 101%, respectively. In addition, the IC50 in experiment [1] (setting [5]) and in experiment [2] (setting [6]) was more than 50 µM throughout.

For `CC1(C)CCC(C(=O)NS(=O)(=O)Cc2ccc(C#N)cc2)(c2ccc(F)cc2)CC1` [Compound 68, N-[(4-Cyanophenyl)methanesulfonyl]-1-(4-fluorophenyl)-4,4-dimethylcyclohexane-1-carboxamide], the values for the remaining activity at 50 µM in experiment [1] and in experiment [2] were 94.4% and 98.3%, respectively. For the same compound, the IC50 in experiment [1] (setting [5]) and in experiment [2] (setting [6]) was more than 50 µM each time.

For `N#Cc1ccc(CS(=O)(=O)NC(=O)C2(c3ccccc3)CCCCC2)cc1` [Compound 69, N-[(4-Cyanophenyl)methanesulfonyl]-1-phenylcyclohexane-1-carboxamide], the remaining activity at 50 µM in experiment [1] was found to be 96%; in experiment [2], 103%. Also, the IC50 in experiment [1] (setting [5]) and in experiment [2] (setting [6]) was more than 50 µM in each case.

As to `N#Cc1ccc(CS(=O)(=O)NC(=O)C(c2ccccc2)c2ccccc2)cc1` [Compound 71, N-[(4-Cyanophenyl)methanesulfonyl]-2,2-diphenylacetamide], the values for the remaining activity at 50 µM in experiment [1] and in experiment [2] were 97.9% and 102%, respectively. Also, the IC50 in experiment [1] (setting [5]) and in experiment [2] (setting [6]) was more than 50 µM each time.

Turning to `N#Cc1ccc(CS(=O)(=O)NC(=O)C(c2ccc(F)cc2)c2ccc(F)cc2)cc1` [Compound 72, N-[(4-Cyanophenyl)methanesulfonyl]-2,2-bis(4-fluorophenyl)acetamide], the remaining activity at 50 µM in experiment [1] was found to be 93.9%; in experiment [2], 100%. Further, the 50% inhibitory concentration (IC50) in experiment [1] (setting [5]) and in experiment [2] (setting [6]) was more than 50 µM in each case.

As to `N#Cc1ccc(CS(=O)(=O)NC(=O)C(C2CCCCC2)C2CCCCC2)cc1` [Compound 73, N-[(4-Cyanophenyl)methanesulfonyl]-2,2-cyclohexylacetamide], the remaining activity at 50 µM in experiment [1] was 91.6%; in experiment [2], 92.7%. Moreover, the concentration for half-maximal inhibition (IC50) in experiment [1] (setting [5]) and in experiment [2] (setting [6]) was more than 50 µM throughout.

Regarding `N#Cc1ccc(CS(=O)(=O)NC(=O)C2(c3cccs3)CCCCC2)cc1` [Compound 75, N-[(4-Cyanophenyl)methanesulfonyl]-1-(thiophen-2-yl)cyclohexane-1-carboxamide], the remaining activity at 50 µM was 96.1% in experiment [1] and 95.4% in experiment [2]. For the same compound, the IC50 in experiment [1] (setting [5]) and in experiment [2] (setting [6]) was more than 50 µM throughout.

For the compound `N#Cc1ccc(CS(=O)(=O)NC(=O)C2(c3ccsc3)CCCCC2)cc1` [Compound 78, N-[(4-Cyanophenyl)methanesulfonyl]-1-(thiophen-3-yl)cyclohexane-1-carboxamide], the remaining activity at 50 µM in experiment [1] turned out to be 90.9%; in experiment [2] it was 103%. The IC50 in experiment [1] (setting [5]) and in experiment [2] (setting [6]) was more than 50 µM in each case.

For `N#Cc1ccc(CS(=O)(=O)NC(=O)C2(c3ccsc3)CCCCC2)cc1Br` [Compound 106, N-[(4-Cyano-3-bromophenyl)methanesulfonyl]-1-(thiophen-3-yl)cyclohexane-1-carboxamide], the results for the remaining activity at 50 µM in experiment [1] and in experiment [2] were 98.9% and 96.9%, respectively. Besides, the concentration for half-maximal inhibition (IC50) in experiment [1] (setting [5]) and in experiment [2] (setting [6]) was more than 50 µM in each case.
